# Results as given in ChEMBL document CHEMBL2412988, “Synthesis, pH-dependent, and plasma stability of meropenem prodrugs for potential use against drug-resistant tuberculosis” (Bioorg Med Chem, 2013).
# System: Mycobacterium tuberculosis
# Experiment: Antimycobacterial activity against extensively drug-resistant Mycobacterium tuberculosis in presence of clavulanate
# Type: functional
smiles,measurement,value
C[C@@H](O)[C@H]1C(=O)N2C(C(=O)O)=C(S[C@@H]3CN[C@H](C(=O)N(C)C)C3)[C@H](C)[C@H]12 [MEROPENEM],MIC,0.03 µg/mL
